Reference: patent publication US20150023954A1, “POTENTIATING ANTIBODY-INDUCED COMPLEMENT-MEDIATED CYTOTOXICITY VIA PI3K INHIBITION” (MEMORIAL SLOAN-KETTERING CANCER CENTER, priority 2012, published 2015)
Entries after “also recorded” stand apart in the source; their conditions may differ.

How the values were obtained:
[1] = system: Colo205Luc cells; assay: Cell growth assay, Colo205; details: for 5B1 cytotoxicity: all inhibitor doses tested, overnight with mAb 5B1 and HuC 5%; for tumor cell (Colo205) growth: high concentration of antibody, better than either inhibitor alone (FIG. 5C, 5D); for PGNX induced tumor cell cytotoxicity: highest PGNX and inhibitor dose tested; for tumor cell growth induced by low dose PGNX and complement: low dose PGNX (e.g., 0.0001 μg/ml), HuC′ 50 μl/ml
Method: (§4) WST-1 assay. WST-1 cell proliferation assay kit was used for detection of the extent of cellular proliferation according to the company's manual. Briefly, 20,000 cells in 100 μl of culture media as defined above were plated in a 96 well flat bottom plate and incubated at 37° C. in 5% CO2 overnight. Antibody doses between 0.02 ρg to 5 μg in 1 μl of defined culture media were added to each well and incubated for 1 hour at 37° C., 5% CO2; 4-10 μl of human serum complement (Quidel Corp. San Diego, Calif.) was then added to each well and incubated overnight. For assays testing the impact of PI3K inhibitor, BEZ235 (Chemdea, Ridgewood, N.J.) at 0.005, 0.5 or 5.0 μg/ml were added accordingly at same time when mAb was added. WST-1 agent (Roche Applied Science, Indianapolis Ind.) was added at 1:10 ratio at the end of incubation, and OD (Optical density) was acquired by reading the plates at 415 nm 4 hours later. The Student t test was used for statistical analysis.

[2] = system: CHLA136Luc cells; assay: WST-1 cell growth assay, CHLA136Luc; format: cell-based, human; details: for higher mAb dose (plus complement) cytotoxicity / low mAb dose (plus complement) growth acceleration: all inhibitor dose levels, with PGNX, 18 hours
Source text: (§1) WST-1 assay. […] The Student t test was used for statistical analysis.

[3] = system: tumor cells; assay: Cell growth experiments with MEK inhibitors and low dose PGNX; format: cell-based; details: PGNX less than 0.0001 μg/m; AZD6244 0.1 μM-5.0 μM; data not shown
Source text: as §1

[4] = system: p-Akt; assay: Western blot of p-Akt in CHLA136Luc cell extracts; format: cell-based, human; details: BEZ235; cells treated with PGNX 0.001 μg/m for 4 hours
Method: (§2) Western blot. 1×10^6 Cells were plated into 6 well plates and incubated overnight. Cells were then treated with BEZ235, mAbs and human sera complement at the dose indicated for 4 hours. At the end of incubation, cells were collected and lysed with lysis buffer from Cell Signal (Danvers, Mass.), which contains protease inhibitor cocktail and phosphatase inhibitor cocktail (Calbiochem, Philadelphia, Pa.), each at 1:100 dilution (Cocktails:lysis buffer). The cell lysates were then quantitated using Bradford assay (Bio-Rad, Hercules, Calif.) according to that company's manual: 30 μg of cell lysate protein from each sample were running on 7.5% of Tris-HCL gel (Bio-Rad) and transferred to a PVDF membrane. Membrane was then blocked with Pierce blocking buffer overnight at 4° C., probed with indicated mAbs at 1:1000 dilution overnight at 4° C. and HRP-goat anti-rabbit-IgG antibody at 1:1000 for 1 hour. The membrane was washed with PBS-T (0.1% Tween-20+PBS) 5 minutes on a shaker 5 times after each incubating and then developed using Amersham™ ECL™ Prime Western Blotting Detection Reagent (GE Healthcare, Piscataway, N.J.). Imaging was acquired by scanning the membrane on the FujiFilm LAS-3000 Imager.

[5] = system: Colo205Luc cells
Method: as §4

[6] = system: p-PRAS40; assay: Western blot of p-PRAS40 in CHLA136Luc cell extracts; format: cell-based, human; details: BEZ235; cells treated with PGNX 0.001 μg/m for 4 hours
Method: as §2

[7] = system: DaudiLuc cells; assay: WST-1 cell growth assay, DaudiLuc; format: cell-based, human
Source text: as §1

[8] = system: p-Akt; assay: Western blot and immunofluorescent staining of p-Akt in Colo205 cells; format: cell-based
Method: as §2

[9] = system: CHLA136Luc cells; assay: IV CHLA136Luc tumor challenge in SCID mice: survival and tumor growth by luciferase imaging; format: in vivo, CB17 SCID mice
Method: Animals. CB17 SCID mice (Taconic) 5-8 weeks old were housed 5 to a cage. The Memorial Sloan Kettering Cancer Center Institutional Animal Care and Use Committee (IACUC) approved all protocols and procedures.
Tumor Challenge. Mice were placed under a heat lamp for 3 minutes and immobilized in a mouse restrainer; 0.5 million CHLA136Luc cells in 100 μl were injected into the tail vein using a BD insulin syringe with 28 gauge needle.
(§3) mAb administration. Mice were treated with murine mAbs 3F8, PGNX, R24, against GD2, GM2, GD3 and Rituxan against CD20. Control mice, typically 2 cages of 5 mice, were treated identically, receiving the same volume of PBS at the same intervals.
Imaging. Mice were anaesthetized using isoflurane and injected with 300 μg of D-Luciferin Firefly (Caliper LifeScience, Hopkinton, Mass.). They were imaged 10 minutes later using the IVIS200 in vivo imaging system (Caliper Life Science) over periods of time ranging up to 3 minutes using the software program “Living Image 3.0” (Caliper Life Science). Values are reported as photons/second.
Statistical analysis. Overall survival was defined as the time from IV tumor cell challenge to date of death or day 160. Survival distributions were generated using Kaplan-Meier methodology (Kaplan, “Nonparametric estimation from incomplete observations”, J. Am. Stat. Assoc., 1958, 53:457-81) and comparisons between treatment group and control (PBS) were made via the […] (using Graphpad Prism 5).

[10] = system: CHLA136Luc, Lan-1-Luc, H524, Hs445, Daudi cells; assay: In vitro cell growth (WST-1) with mAbs and human complement on selected cell lines (FIG. 3); format: cell-based
Source text: as §1

[11] = system: CD20; assay: In vivo experiments targeting CD20 (Rituxan): tumor growth; design: species or system SCID mice; details: data not shown
Method: as §3

[12] = system: Hs445; assay: WST-1 cell growth assay, Hs445; format: cell-based, human; details: low dose, six experiments
Source text: as §1

[13] = BEZ235 alone, 25 or 12.5 mg/kg by gavage daily for 2 weeks

NC1(c2ccc(-c3nc4ccn5c(=O)[nH]nc5c4cc3-c3ccccc3)cc2)CCC1 [MK2206]
5B1 cytotoxicity [1]: enhanced | tumor cell (Colo205) growth [1]: inhibited | PGNX induced tumor cell cytotoxicity [1]: enhanced | tumor cell growth induced by low dose PGNX and complement [1]: dramatically inhibited | higher mAb dose (plus complement) cytotoxicity [2]: increased | low mAb dose (plus complement) growth acceleration [2]: prevented

Cn1cnc2c(F)c(Nc3ccc(Br)cc3Cl)c(C(=O)NOCCO)cc21 [AZD6244]
cytotoxicity of PGNX at sublytic low dosages [3]: enhanced

CC(=O)Nc1cccc(-n2c(=O)n(C3CC3)c(=O)c3c(Nc4ccc(I)cc4F)n(C)c(=O)c(C)c32)c1 [GSK202011]
cytotoxicity of PGNX at sublytic low dosages [3]: enhanced

Cn1c(=O)n(-c2ccc(C(C)(C)C#N)cc2)c2c3cc(-c4cnc5ccccc5c4)ccc3ncc21 [BEZ235]
p-Akt expression [4]: inhibited | cytotoxicity of Colo205luc cells [5]: significantly enhanced | effect on proliferation compared to Wortmannin [1]: greater effect | accelerated cell growth induced by low dose 5B1 ([1]; 5B1 0.001-0.01 μg/ml (BEZ235), 0.001 μg/ml (Wortmannin)): inhibited | p-PRAS40 expression [6]: inhibited | effect on proliferation compared to Wortmannin [2]: greater effect | cell growth in vitro ([2]; BEZ235): decreased | mAb cytotoxicity and low-dose growth acceleration ([2]; BEZ235 with mAbs R24 and PGNX (Table 2)): Comparable results | mAb cytotoxicity ([2]; all BEZ235 doses tested, combined with 3F8 at various doses plus complement, vs each treatment alone): significantly enhanced; also recorded: increased | accelerated cell growth induced by low dose mAb ([2]; combined with low-dose 3F8 (0.001 μg/ml) plus complement): significantly inhibited; also recorded: prevented | cell growth in vitro ([7]; BEZ235): decreased | mAb cytotoxicity ([7]; all BEZ235 doses tested, combined with Rituxan at various doses plus complement, vs each treatment alone): significantly enhanced; also recorded: increased | accelerated cell growth induced by low dose mAb ([7]; combined with low-dose Rituxan (0.0001 μg/ml) plus complement): significantly inhibited; also recorded: prevented | p-Akt expression ([8]; BEZ235 1 μM alone): inhibited; also recorded: decreased p-AKT | treatment time giving complete inhibition of p-Akt expression ([8]; BEZ235 at 1 μM): ≥ 2 h | BEZ235 dose giving complete inhibition of p-AKT expression ([8]; cells treated for 4 hrs): ≥ 0.5 µM | CHLA136Luc growth [9, 13]: significantly reduced | survival [9, 13]: prolonged survival | high mAb dose induced growth inhibition ([9]; BEZ235 by gavage with high dose mAb): increased | low dose mAb (PGNX) induced early tumor growth acceleration ([9]; BEZ235 by gavage with low-dose PGNX): eliminated; also recorded: preventing; also recorded: prevented | survival of challenged SCID mice ([9]; BEZ235 with mAbs, compared with high-dose PGNX and 3F8 alone): significantly increasing survival

Nc1cc(C(F)(F)F)c(-c2cc(N3CCOCC3)nc(N3CCOCC3)n2)cn1 [BKM120]
5B1 cytotoxicity [1]: enhanced | tumor cell (Colo205) growth [1]: inhibited | PGNX induced tumor cell cytotoxicity [1]: enhanced | tumor cell growth induced by low dose PGNX and complement [1]: dramatically inhibited | higher mAb dose (plus complement) cytotoxicity [2]: increased | low mAb dose (plus complement) growth acceleration [2]: prevented

rituximab [Rituxan]
tumor growth in vitro ([10]; high mAb doses, with complement): inhibited tumor growth | complement-independent tumor inhibition ([10]; highest mAb doses, absence of complement): detected | tumor cell growth in vitro ([10]; low mAb doses, exclusively in the presence of complement): accelerated tumor cell growth | cell growth ([7]; low dose, single experiment): significantly accelerated growth | tumor growth ([11]; doses as low as 0.001 mcg): slight delay of tumor growth | accelerated tumor growth ([11]; doses down to 0.001 mcg): not seen | experiments with significantly accelerated growth [12]: 4
